Assay results from patent US20230027066A1 (Urovant Sciences GmbH, priority 2019, published 2023).
Where two headings read alike, the source gives them in different places.

Tests used:
CYP2D6 = CYP2D6 (Homo sapiens, UniProt P10635); test: drug interaction study of vibegron and metoprolol succinate (moderately sensitive CYP2D6 substrate); type: in vivo; design: from tissue; host or cells: in vivo, healthy adult human subjects (endogenous enzyme)
[1] = QT Study/Label April 2018, cited from earlier work
[2] = human, plasma, metoprolol 100 mg alone
[3] = metoprolol 100 mg, vibegron 75 mg
[4] = 50 mg repeat-dose, healthy subjects

Sequence of CYP2D6 (P10635 whole entry): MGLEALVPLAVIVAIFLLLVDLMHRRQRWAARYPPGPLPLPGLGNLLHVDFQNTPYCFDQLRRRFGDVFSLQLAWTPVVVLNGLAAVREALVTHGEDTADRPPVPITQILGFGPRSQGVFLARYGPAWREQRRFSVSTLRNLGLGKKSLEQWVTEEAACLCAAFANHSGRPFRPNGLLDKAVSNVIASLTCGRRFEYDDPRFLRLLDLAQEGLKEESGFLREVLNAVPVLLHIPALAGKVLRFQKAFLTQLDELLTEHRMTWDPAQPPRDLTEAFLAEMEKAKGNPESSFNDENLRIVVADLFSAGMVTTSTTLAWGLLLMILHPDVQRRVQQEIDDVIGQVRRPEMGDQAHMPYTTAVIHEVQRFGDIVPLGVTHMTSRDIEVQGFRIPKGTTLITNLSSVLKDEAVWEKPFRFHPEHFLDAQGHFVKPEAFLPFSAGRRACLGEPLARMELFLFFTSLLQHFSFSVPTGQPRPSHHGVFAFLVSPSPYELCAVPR

| SMILES | AUC(0-inf) (CYP2D6; [2]) | Cmax (CYP2D6; [2]) | half-life (CYP2D6; human, plasma, metoprolol 100 mg alone, read-out: t1/2, GM (% CV) (converted)) | AUC0-∞, ratio of GLS mean metoprolol + vibegron/metoprolol alone (CYP2D6; [3]) | Cmax, ratio of GLS mean metoprolol + vibegron/metoprolol alone (CYP2D6; [3]) | SBP change 24-hour average, placebo adjusted [1, 4] | SBP change Maximum mean, placebo adjusted [1, 4] | SBP change 24-hour average, placebo adjusted ([1]; 100 mg repeat-dose, healthy subjects) | SBP change 24-hour average, placebo adjusted ([1]; 200 mg repeat-dose, healthy subjects) | HR change Maximum mean, placebo adjusted ([1]; first of doses 50, 100, 200 mg repeat-dose (doses from the Doses line)) | HR change Maximum mean, placebo adjusted ([1]; second of doses 50, 100, 200 mg repeat-dose (doses from the Doses line)) | HR change Maximum mean, placebo adjusted ([1]; third of doses 50, 100, 200 mg repeat-dose (doses from the Doses line)) |
| --- | --- | --- | --- | --- | --- | --- | --- | --- | --- | --- | --- | --- |
| COCCc1ccc(OCC(O)CNC(C)C)cc1 (stereo not drawn) [Metoprolol, metoprolol succinate] | 384 ng·h/mL | 21.9 ng/mL | 9.5 h | 1.40 | 1.49 | – | – | – | – | – | – | – |
| Nc1nc(CC(=O)Nc2ccc(CCNC[C@H](O)c3ccccc3)cc2)cs1 [Mirabegron, mirabegron] | – | – | – | – | – | +3.0 mmHg | Maximum mean +4.0 mmHg | +5.5 mmHg | +9.7 mmHg | 6.7 bpm | 11 bpm | 17 bpm |
